Reference: publication PMC9728921, “Characterization of a KDM5 small molecule inhibitor with antiviral activity against hepatitis B virus” (PLOS ONE, 2022)
Entries after “also recorded” stand apart in the source; their conditions may differ.

Columns and labels:
KDM3A = KDM3A (Homo sapiens, UniProt Q9Y4C1); assay: KDM3A enzymatic assay (AlphaLISA); format: biochemical
Protocol: (§1) The following assay protocol was used for all histone demethylases tested except KDM1A, KDM5A, B, and D, which are described below. Compounds were serially diluted into a 384-well Alpha plate as a DMSO solution and mixed with 5 μL reaction buffer (buffer A) containing 50 mM HEPES (pH 7.0), 0.1% BSA, and 0.003% Tween-20. The enzyme of interest was pre-incubated with 15 μM of Fe^2+ for 10 min (except 30 min for KDM2B) in reaction buffer A. 5 μL of the enzyme mixture was added to each of the compound-containing wells and incubated for 10 min. The reaction was started by addition of a 5 μL mixture containing 300 nM peptide substrate, 75 μM L-ascorbic acid, and 30 μM α-ketoglutarate in buffer A. This final 15 μL of reaction mixture was incubated for 20 min for KDM5B and 1 hour for the other KDM enzymes. The reaction was quenched with 10 μL of diluted AlphaLISA Acceptor beads (1:400) in Epigenetics Buffer and incubated for 60 min. The Donor beads were diluted 1:400 into Epigenetics Buffer in the dark and 10 μL of this was added to each well and incubated for another 60 min in the dark. The assay plates were read on an Enspire plate reader (PerkinElmer) using a standard AlphaLISA program.
(§2) Data was analyzed using GraphPad Prism 6.0 (La Jolla, CA). […] IC50 values were calculated as an average of at least two independent experiments.

KDM7B = KDM7B (Homo sapiens, UniProt Q9UPP1); assay: KDM7B enzymatic assay (AlphaLISA); format: biochemical
Sequence of KDM7B (Q9UPP1 whole entry): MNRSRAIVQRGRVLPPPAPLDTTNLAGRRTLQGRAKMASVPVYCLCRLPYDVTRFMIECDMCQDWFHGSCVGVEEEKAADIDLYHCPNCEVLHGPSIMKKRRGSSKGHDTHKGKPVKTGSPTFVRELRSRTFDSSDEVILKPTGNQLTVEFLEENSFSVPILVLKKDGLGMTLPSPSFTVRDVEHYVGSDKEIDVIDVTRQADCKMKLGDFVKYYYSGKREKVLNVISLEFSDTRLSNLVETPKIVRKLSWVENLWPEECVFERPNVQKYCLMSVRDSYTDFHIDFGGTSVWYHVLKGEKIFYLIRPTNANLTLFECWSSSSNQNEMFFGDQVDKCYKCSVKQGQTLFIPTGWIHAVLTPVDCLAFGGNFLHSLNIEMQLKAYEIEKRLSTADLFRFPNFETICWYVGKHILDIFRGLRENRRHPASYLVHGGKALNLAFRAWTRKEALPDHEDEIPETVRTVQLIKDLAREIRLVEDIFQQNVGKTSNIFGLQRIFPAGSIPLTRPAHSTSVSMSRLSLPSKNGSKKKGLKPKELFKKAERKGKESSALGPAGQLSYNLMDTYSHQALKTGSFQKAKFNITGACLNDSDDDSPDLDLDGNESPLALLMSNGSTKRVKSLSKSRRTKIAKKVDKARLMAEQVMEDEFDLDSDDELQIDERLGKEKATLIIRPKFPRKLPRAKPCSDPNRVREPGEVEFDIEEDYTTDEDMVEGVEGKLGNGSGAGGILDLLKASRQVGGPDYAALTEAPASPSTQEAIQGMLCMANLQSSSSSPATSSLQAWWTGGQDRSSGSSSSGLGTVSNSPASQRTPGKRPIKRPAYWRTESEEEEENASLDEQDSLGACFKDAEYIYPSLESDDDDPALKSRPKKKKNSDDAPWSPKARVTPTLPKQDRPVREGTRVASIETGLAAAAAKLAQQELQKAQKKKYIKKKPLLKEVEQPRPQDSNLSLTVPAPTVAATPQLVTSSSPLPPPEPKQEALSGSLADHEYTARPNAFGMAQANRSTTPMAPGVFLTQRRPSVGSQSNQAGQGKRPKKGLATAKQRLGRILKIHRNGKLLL
Protocol: as §1, §2

PRMT5/MEP50 = PRMT5/MEP50 (Homo sapiens, UniProt O14744); assay: Histone methyltransferase enzymatic assay, PRMT5/MEP50; format: biochemical; conditions: enzyme conc. 100 nM
Sequence of PRMT5/MEP50 (O14744 2-637): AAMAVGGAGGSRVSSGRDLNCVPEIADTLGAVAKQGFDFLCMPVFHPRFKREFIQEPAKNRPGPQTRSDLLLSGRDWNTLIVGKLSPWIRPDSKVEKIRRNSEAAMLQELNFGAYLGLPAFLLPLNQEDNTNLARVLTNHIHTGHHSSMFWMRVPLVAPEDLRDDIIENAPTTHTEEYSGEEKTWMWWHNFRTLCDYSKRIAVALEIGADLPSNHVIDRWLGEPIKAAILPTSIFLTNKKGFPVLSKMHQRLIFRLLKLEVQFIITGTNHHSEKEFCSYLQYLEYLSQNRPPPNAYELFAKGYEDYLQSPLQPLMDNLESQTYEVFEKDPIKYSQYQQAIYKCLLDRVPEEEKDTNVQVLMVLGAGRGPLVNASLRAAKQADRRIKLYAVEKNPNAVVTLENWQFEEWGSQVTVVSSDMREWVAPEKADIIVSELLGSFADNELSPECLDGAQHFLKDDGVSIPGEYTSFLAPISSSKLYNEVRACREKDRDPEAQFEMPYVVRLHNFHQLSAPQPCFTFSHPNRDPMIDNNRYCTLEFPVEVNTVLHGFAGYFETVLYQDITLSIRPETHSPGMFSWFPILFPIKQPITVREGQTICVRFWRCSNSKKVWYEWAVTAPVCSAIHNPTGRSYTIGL
Sequence of PRMT5/MEP50 (Q9BQA1 3-342 partner limits assumed): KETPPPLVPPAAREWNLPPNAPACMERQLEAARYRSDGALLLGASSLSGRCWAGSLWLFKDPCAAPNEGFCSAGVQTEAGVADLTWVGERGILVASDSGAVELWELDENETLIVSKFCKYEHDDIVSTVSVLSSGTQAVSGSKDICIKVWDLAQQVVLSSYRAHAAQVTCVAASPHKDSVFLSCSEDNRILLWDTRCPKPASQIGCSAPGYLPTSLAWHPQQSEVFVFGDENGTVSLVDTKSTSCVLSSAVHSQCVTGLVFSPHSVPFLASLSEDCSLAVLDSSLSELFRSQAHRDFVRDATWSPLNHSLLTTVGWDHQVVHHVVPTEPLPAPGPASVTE
Protocol: Histone methyltransferase assays were performed in 96-well half-area optiplates (PerkinElmer) at room temperature. All concentrations are final unless noted otherwise. Compounds were serially diluted in DMSO and the final DMSO concentration was 1%. A 24 μL reaction mixture contained compound, enzyme, 200 nM of nucleosome or histone substrate, 400 nM ^3H-SAM (83.1 Ci/mmol), 50 mM Tris-HCl (pH 8.0), 50 mM NaCl, 5 mM MgCl2, 1 mM DTT, and 0.01% Tween-20. The plate was sealed, mixed on a Titramax plate shaker at 1200 rpm for 30 sec, and incubated at room temperature for 60 min. The reaction was quenched by addition of 24 μL mixture containing 5 mg/mL PVT-PEI beads and 300 μM unlabeled SAM in water. The plate was sealed, mixed as previously noted, incubated overnight, and read on a TopCount plate reader (PerkinElmer).
as §2

[1] = Cell-associated GS-080 exposure and half-life in PHH (LC-MS); format: in vitro ADME, human
Protocol: PHH were infected with HBV for three days prior to initiation of GS-5801 treatment. PHH were dosed with vehicle or 1 µM GS-5801once for three days (three day exposure; continuous dosing) or once for two hours (two hour exposure; pulse dosing). […] (C) Pharmacokinetic parameters calculated included the half-life (t1/2), maximum concentration (Cmax), and area under the curve (AUClast).

H3K4me3:H3 = assay: Global H3K4me3:H3 ratio by ELISA in HBV-infected PHH; format: cell-based, human; conditions: single pulse dose; day nine
Protocol: For the pulse dose regimen, medium containing compound was removed after two hours incubation and replaced with fresh maintenance medium every three to four days. Cells in the pulse dose experiment received only one dose of compound (Day = 0). Histones were enriched from tissue and PBMC samples using the AbCam total histone extraction kit (Cambridge, UK; ab113476) according to the manufacturer’s protocol after cell/tissue dissociation with an IKA T10 TURRAX homogenizer (Wilmington, NC; […] Histones were enriched from 500,000 to 750,000 PHH. PHH monolayers were washed once with cold (4°C) 1X DPBS (Dulbecco’s phosphate buffered saline; 21-031-CV, Corning Inc.). Cold triton extraction buffer (TEB): 1X DPBS, 0.5% triton X-100 (Sigma-Aldrich, T9284), 2 mM phenylmethylsulfonyl fluoride (PMSF; Thermo Fisher Scientific, 36978), was added to the cell monolayer at a density of 1 x 10^6 cells/mL. After 10-minute incubation in TEB at 4°C, the cell monolayer was scraped and cells were pelleted by centrifuged at 1200 rpm at 4°C for 10 minutes. […] Total protein concentration of all samples following histone enrichment was determined using a bicinchoninic acid (BCA) assay (Thermo Fisher Scientific; 23225). […] Absorbance of each well was measured at 450 nm within five minutes using a SpectraMax Plus 384 Microplate Reader (Molecular Devices; PLUS 384).

Sequence of KDM3A (Q9Y4C1 whole entry): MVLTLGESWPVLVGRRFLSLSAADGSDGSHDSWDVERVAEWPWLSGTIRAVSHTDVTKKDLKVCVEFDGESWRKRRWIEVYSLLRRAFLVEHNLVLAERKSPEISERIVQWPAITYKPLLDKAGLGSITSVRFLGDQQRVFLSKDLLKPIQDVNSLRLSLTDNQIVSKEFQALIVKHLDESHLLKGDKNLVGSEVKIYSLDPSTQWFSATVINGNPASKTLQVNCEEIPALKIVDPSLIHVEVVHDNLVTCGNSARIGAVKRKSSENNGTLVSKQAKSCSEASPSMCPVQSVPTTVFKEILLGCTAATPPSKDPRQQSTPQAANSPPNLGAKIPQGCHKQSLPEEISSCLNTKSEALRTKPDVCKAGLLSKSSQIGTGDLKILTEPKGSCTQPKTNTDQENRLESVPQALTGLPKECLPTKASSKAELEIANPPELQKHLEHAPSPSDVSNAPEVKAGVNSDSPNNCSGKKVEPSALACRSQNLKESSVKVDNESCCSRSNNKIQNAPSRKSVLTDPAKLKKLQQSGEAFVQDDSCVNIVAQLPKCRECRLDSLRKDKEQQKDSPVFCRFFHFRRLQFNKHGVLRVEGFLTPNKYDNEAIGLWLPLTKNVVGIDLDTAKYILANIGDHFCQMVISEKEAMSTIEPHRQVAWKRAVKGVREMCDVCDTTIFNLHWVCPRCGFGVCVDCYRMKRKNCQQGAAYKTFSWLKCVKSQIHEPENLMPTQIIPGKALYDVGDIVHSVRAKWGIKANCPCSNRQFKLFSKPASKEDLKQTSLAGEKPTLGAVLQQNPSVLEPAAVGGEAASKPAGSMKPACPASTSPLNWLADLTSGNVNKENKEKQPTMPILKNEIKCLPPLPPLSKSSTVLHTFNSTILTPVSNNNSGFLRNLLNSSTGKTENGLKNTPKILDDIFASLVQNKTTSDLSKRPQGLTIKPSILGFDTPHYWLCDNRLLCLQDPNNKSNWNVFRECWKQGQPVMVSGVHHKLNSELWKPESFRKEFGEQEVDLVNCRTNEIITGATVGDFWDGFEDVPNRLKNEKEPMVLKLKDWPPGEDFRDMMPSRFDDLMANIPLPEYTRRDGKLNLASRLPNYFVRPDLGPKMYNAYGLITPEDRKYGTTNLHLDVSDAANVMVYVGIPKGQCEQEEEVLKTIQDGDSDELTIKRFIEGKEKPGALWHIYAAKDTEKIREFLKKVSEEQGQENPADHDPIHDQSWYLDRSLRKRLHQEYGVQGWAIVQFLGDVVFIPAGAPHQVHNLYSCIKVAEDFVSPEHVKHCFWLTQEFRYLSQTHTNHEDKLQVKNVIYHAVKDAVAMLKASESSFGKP

Fold Selectivity Compared to KDM5A (KDM3A; IC50 of KDM3A over KDM5A) | IC50 (KDM3A; enzyme concentration 0.3 nM) | Fold Selectivity Compared to KDM5A (KDM7B; IC50 of KDM7B over KDM5A) | IC50 (KDM7B; enzyme concentration 2.5 nM) | IC50 (PRMT5/MEP50) | cell-associated GS-080 Cmax and AUClast, pulse compared to continuous dosing ([1]; PHH dosed with 1 µM GS-5801, two-hour pulse vs three day exposure) | half-life at 1 µM ([1]; human, primary human hepatocytes (PHH), cell-associated, PHH, 1 uM, uninfected PHH) | Compound | H3K4me3:H3 level (H3K4me3:H3)
> 4,720 fold | 1700 nM | > 1,110 fold | 400 nM | > 100000 nM | two-fold lower Cmax and AUClast values | 42 to 66 h | CCN(CCN(C)C)C(=O)CNCc1cc(C(=O)O)ccn1 [GS-080] | 
 |  |  |  |  |  |  | CCOC(=O)c1ccnc(CNCC(=O)N(CC)CCN(C)C)c1 [GS-5801] | almost back to baseline levels; also recorded: near baseline levels
